# Measurements reported in ChEMBL document CHEMBL1146688, “Aminoimidazoles as bioisosteres of acylguanidines: novel, potent, selective and orally bioavailable inhibitors of the sodium hydrogen exchanger isoform-1” (Bioorg Med Chem Lett, 2004).
# How the values were obtained:
# [1] = target: Sodium/hydrogen exchanger 1 (Homo sapiens, UniProt P19634); experiment: Inhibition of sodium dependent recovery of pH following imposed acidosis in AP1 cell line expressing the human NHE-1 isoform.; assay type: functional, cell-based
# [2] = Oral bioavailability in rat (dose 2.8 mg/kg p.o.); assay type: ADME, organism-based; settings: in vivo
# [3] = Plasma half life in rat at oral dose 2.8 mg/mk body weight; assay type: ADME, organism-based
# Chain of Sodium/hydrogen exchanger 1 (P19634 whole entry, canonical isoform): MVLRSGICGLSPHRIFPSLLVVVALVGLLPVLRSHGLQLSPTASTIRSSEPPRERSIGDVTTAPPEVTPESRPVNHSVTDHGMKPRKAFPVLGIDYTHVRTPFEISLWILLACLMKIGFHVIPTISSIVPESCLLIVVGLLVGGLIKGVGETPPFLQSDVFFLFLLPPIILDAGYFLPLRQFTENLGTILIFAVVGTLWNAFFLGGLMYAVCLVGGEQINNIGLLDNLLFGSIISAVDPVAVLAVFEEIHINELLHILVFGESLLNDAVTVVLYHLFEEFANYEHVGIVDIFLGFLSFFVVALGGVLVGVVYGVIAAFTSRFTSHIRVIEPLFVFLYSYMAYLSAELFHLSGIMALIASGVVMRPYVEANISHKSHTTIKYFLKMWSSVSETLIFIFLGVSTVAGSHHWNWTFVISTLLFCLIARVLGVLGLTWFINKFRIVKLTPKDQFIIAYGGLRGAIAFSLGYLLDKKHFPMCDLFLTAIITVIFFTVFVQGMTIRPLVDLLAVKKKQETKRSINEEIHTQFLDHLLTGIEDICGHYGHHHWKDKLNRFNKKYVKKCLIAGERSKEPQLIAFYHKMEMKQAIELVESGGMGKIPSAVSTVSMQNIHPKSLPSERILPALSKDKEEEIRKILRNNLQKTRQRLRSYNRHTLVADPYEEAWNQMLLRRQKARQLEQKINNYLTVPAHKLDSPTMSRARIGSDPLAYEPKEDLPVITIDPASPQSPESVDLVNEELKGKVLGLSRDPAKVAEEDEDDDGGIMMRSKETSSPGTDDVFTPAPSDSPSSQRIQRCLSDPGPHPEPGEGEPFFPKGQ
IC50 [1] [µM],bioavailability [2] [%],Structure (SMILES),half-life [3] [h]
2.6,,Cc1[nH]c(N)nc1[C@@H]1[C@@H](c2cccc3c2CCO3)C1(C)C,
> 30,,CC1(C)[C@H](c2cnc(N)s2)[C@H]1c1cccc2c1CCO2,
4.85,,CSc1nccn1[C@@H]1[C@@H](c2cccc(Cl)c2)C1(C)C,
3.8,,CC1(C)[C@H](c2c[nH]c(N)n2)[C@H]1c1cccc2c1CCO2,
30,,CC1(C)[C@H](c2nc(N)no2)[C@H]1c1cccc2c1CCO2,
0.021,26,"CC1(C)C(c2cccc(Cl)c2)[C@H]1C(=O)NC(=N)N (single isomer, unassigned)",5
0.95,,"Cc1[nH]cnc1[C@@H]1C(c2cc(Cl)cc(Cl)c2)C1(C)C (single isomer, unassigned)",
> 30,,"CC1(C)C(c2cc(Cl)cc(Cl)c2)[C@H]1c1cnc(N)s1 (single isomer, unassigned)",
0.18,,"CC1(C)C(c2cc(Cl)cc(Cl)c2)[C@H]1c1c[nH]c(N)n1 (single isomer, unassigned)",
3.6,,"CC1(C)C(c2cc(Cl)cc(Cl)c2)[C@H]1c1cc(N)nc(N)n1 (single isomer, unassigned)",
8,,"CC1(C)C(c2cccc(Cl)c2)[C@H]1c1cnc(N)s1 (single isomer, unassigned)",
0.75,,"CC1(C)C(c2cccc(Cl)c2)[C@H]1c1c[nH]c(N)n1 (single isomer, unassigned)",
0.008,,"Cc1[nH]c(N)nc1[C@@H]1C(c2cc(Cl)cc(Cl)c2)C1(C)C (single isomer, unassigned)",
0.039,26,"Cc1nc(N)[nH]c1[C@@H]1C(c2cccc(Cl)c2)C1(C)C (single isomer, unassigned)",5

Structure (SMILES),IC50 [1] [µM],bioavailability [2] [%],half-life [3] [h]
CC1(C)[C@H](c2c[nH]cn2)[C@H]1c1cccc2c1CCO2,> 30,,
Cc1[nH]cnc1[C@@H]1[C@@H](c2cccc3c2CCO3)C1(C)C,11,,
"CC1(C)C(c2cc(Cl)cc(Cl)c2)[C@H]1c1cnc[nH]1 (single isomer, unassigned)",4,,
